Source: paper PMC11054906 (Pharmaceuticals, 2024)

Experiments:
[1] = Population PK analysis (NLME, Monolix) of empagliflozin plasma concentrations from two phase 1 crossover studies; type: in vivo, healthy Korean subjects
Description: Data from two clinical studies (NCT03849495 and NCT03848637) were used in this study to develop the PK model and conduct population PK analysis. Both of the studies were randomized, open-label, two-period, two-sequence, crossover studies comparing the PK characteristics, safety and tolerability profiles of the two study drugs in healthy Korean subjects. Healthy subjects aged between 19 and 50 years with BMIs of 18–27 kg/m^2 were recruited for both studies. Subjects without any clinically significant medical history, and without any clinically significant findings in physical examinations, vital signs, 12-lead electrocardiograms (ECG), and clinical laboratory test results were eligible for the studies. Subjects who could not abstain from alcohol, smoking, or drug use throughout the study were excluded. To ensure safety, subjects with any allergies to the study medications were also excluded. Adverse drug reactions were assessed throughout the study period, and the monitoring of physical examinations, vital signs, 12-lead ECG, and laboratory tests was also performed.
Demographic data, clinical laboratory data, and time–plasma concentration data were pooled to develop a population PK model.
Blood samples were collected before drug administration (0 h) and 0.33 h, 0.67 h, 1 h, 1.5 h, 2 h, 2.5 h, 3 h, 4 h, 6 h, 8 h, 10 h, 12 h, 24 h, 34 h, and 48 h after study’s drug administration in the first study. In the second study, blood samples were also collected at 3.5 h and 5 h. Thus, a total of 16 and 18 blood samples were collected from each healthy volunteer in the two clinical studies, respectively. […] In the second study, the plasma concentrations of empagliflozin were quantified by using liquid chromatography–mass spectrometry (LC–MS) equipped with API 4000 (SCIEX; multiple reaction monitoring, electrospray ionization, and positive SCIEX mode). All experiments adhered to the standards of good laboratory practice as described previously. The calibration ranges in these two studies were 2–1500 ng/mL and 0.5–150 ng/mL, respectively.
The population PK analysis was conducted using a nonlinear mixed effect (NLME) modeling method with Monolix® Suite 2021R1 (Lixoft, Antony, France). The stochastic approximation expectation maximization (SAEM) algorithm was implemented, and model qualification was performed using a likelihood ratio test, Bayesian information criterion (BIC), goodness-of-fit (GOF) diagnostic plots, and visual predictive checks (VPCs). Various compartment models with lag time, transit compartment, and Weibull absorption were established to construct the base PK model.
After the development of the base model, interindividual variability (IIV), interoccasion variability (IOV), and residual errors were added to the model. Because of the crossover study design, the random variation in the population PK parameters was described by both the IIV and IOV, with all the individual parameters considered to be log-normally distributed. IIV and IOV were sequentially implemented, and the parameters were subsequently removed or fixed at low values when converging to zero. The exponential random effects terms for the IIV and IOV are shown in Formulas (2) and (3), respectively. (2) Pi=θk×e^ηi where Pi represents the parameter value k from individual i and θk describes the population value of parameter k. ηi denotes the difference between Pi and θk. (3) Pi,occ=θk×e^ηi+Kkiq where Pi,occ is the individual parameter value k from individual i at occasion q that differs from the typical individual value by an additional random effect Kkiq. An occasion was characterized as the time period from the start of an infusion until the start of the next administration. ηki and Kkiq were assumed to be symmetrically distributed with a zero mean and a variance of σ^2 and γ^2, respectively. […]

[2] = parameters: method as in PMID 23940010, PMID 27312794, PMID 29251772, PMID 24964723; settings: cited from earlier work
[3] = 1000 bootstrap resampling, interindividual variability
[4] = 1000 bootstrap resampling, interoccasion variability
[5] = final model, oral single dose, both formulations pooled

CL, median of bootstrap (95% CI) ([1]; 1000 bootstrap resampling): 8.21 (7.945–8.465) L/h
Ka, median of bootstrap (95% CI) ([1]; 1000 bootstrap resampling): 0.25 (0.23–0.275) h^−1
Ktr, median of bootstrap (95% CI) ([1]; 1000 bootstrap resampling): 8.94 (6.766–11.728) h^−1
Mtt, median of bootstrap (95% CI) ([1]; 1000 bootstrap resampling): 0.64 (0.526–0.725) h
Q, median of bootstrap (95% CI) ([1]; 1000 bootstrap resampling): 4.66 (3.979–5.456) L/h
V1, median of bootstrap (95% CI) ([1]; 1000 bootstrap resampling): 0.64 (0–1.889) L
V2, median of bootstrap (95% CI) ([1]; 1000 bootstrap resampling): 43.93 (41.255–47.171) L
b (residual variability), median of bootstrap (95% CI) ([1]; 1000 bootstrap resampling): 0.16 (0.141–0.175)
βCL_logWT, median of bootstrap (95% CI) ([1]; 1000 bootstrap resampling): 0.64 (0.366–0.926)
βV2_logWT, median of bootstrap (95% CI) ([1]; 1000 bootstrap resampling): 0.54 (0.221–0.851)
ωCL, median of bootstrap (95% CI) [1, 3]: 0.12 (0.101–0.141)
ωKa, median of bootstrap (95% CI) [1, 3]: 0.16 (0.116–0.208)
ωV2, median of bootstrap (95% CI) [1, 3]: 0.13 (0.1–0.172)
γCL, median of bootstrap (95% CI) [1, 4]: 0.04 (0.025–0.06)
γKa, median of bootstrap (95% CI) [1, 4]: 0.04 (0.023–0.062)
γKtr, median of bootstrap (95% CI) [1, 4]: 1.11 (0.858–1.334)
γMtt, median of bootstrap (95% CI) [1, 4]: 0.44 (0.359–0.528)
b, residual variability (proportional error) ([1]; final model): 0.16
Ktr (transit rate constant), population value ([1]; final model, oral single dose 25 mg or 5 mg (with metformin 1000 mg), both formulations pooled): 9.19 h⁻¹
CL (clearance), population value [1, 5]: 8.21 L/h
Ka (absorption rate constant), population value [1, 5]: 0.26 h⁻¹
Mtt (mean transit time for absorption), population value [1, 5]: 0.63 h
V1, population value [1, 5]: 0.6 L
Mtt (mean transit time) ([1]; final two-compartment transit model): 37.8 min
number of transit compartments ([1]; from Formula (1), Mtt and Ktr of the final model): 4.79
γCL, interoccasion variability ([1]; presented as SD (CV)): 4.3%
γKa, interoccasion variability ([1]; presented as SD (CV)): 0.029 (2.90) %
γKtr, interoccasion variability ([1]; presented as SD (CV)): 1.17 (171.20) %
γMtt, interoccasion variability ([1]; presented as SD (CV)): 0.42 (43.92) %
ωCL, interindividual variability ([1]; presented as SD (CV)): 0.12 (12.04) %
ωV2, interindividual variability ([1]; presented as SD (CV)): 0.13 (13.06) %
Structure (SMILES): OC[C@H]1O[C@@H](c2ccc(Cl)c(Cc3ccc(O[C@H]4CCOC4)cc3)c2)[C@H](O)[C@@H](O)[C@@H]1O [empagliflozin, Empagliflozin]
βV2_logWT (effect of log-transformed body weight on V2) ([1]; final model, covariate coefficient): 0.57
estimated Mtt ([2]; three transit compartment model): 30 min
lag time (fixed) of lagged first-order oral absorption ([2]; two-compartment model): 0.5 h
